Results on 38 molecules are retold here after ChEMBL document CHEMBL5113380, “Functionalized quinoxalinones as privileged structures with broad-ranging pharmacological activities” (Eur J Med Chem, 2022).

In assay [1] the target is Glutamate [NMDA] receptor. The assay can be described thus: Displacement of [3H]DCKA from NMDA receptor (unknown origin). It counts as protein-complex assay, Homo sapiens.
For another assay, the system named is Escherichia coli. The assay can be described thus: Antibacterial activity against Escherichia coli. It counts as functional.
Another assay has as its system Staphylococcus aureus. The assay can be described thus: Antibacterial activity against Staphylococcus aureus. Format: functional.
In a further assay the test system is Candida albicans. The assay can be described thus: Antifungal activity against Candida albicans. Format: functional.
For a further assay, the system named is Pseudomonas aeruginosa. The assay can be described thus: Antibacterial activity against Pseudomonas aeruginosa. It counts as functional.
For the next assay, the system named is Bacillus cereus. The assay can be described thus: Antibacterial activity against Bacillus cereus. Format: functional.
The next assay has as its system Aspergillus niger. The assay can be described thus: Antifungal activity against Aspergillus niger. Format: functional.
For assay [2], the system named is Trichophyton mentagrophytes. The assay can be described thus: Antimicrobial activity against Trichophyton mentagrophytes. It counts as functional.
Assay [3] is described as follows: Inhibition of ALR2 (unknown origin). More on the design: species or system Homo sapiens.
The nature of assay [4]: Inhibition of ALR1 (unknown origin) relative to control. Also on record: concentration or dose not given beside the values. Particulars: Homo sapiens; concentration not given here.
Assay [5] addresses T1, Glutamate receptor ionotropic AMPA (Homo sapiens, UniProt P42261+P42262+P42263+P48058). The assay can be described thus: Displacement of [3H]AMPA from AMPA receptor (unknown origin). Format: protein-complex assay. On the technique in general: In a radioligand displacement assay an active substance lowers the binding of a labelled ligand.
Assay [6] concerns the target T1, Glutamate receptor ionotropic AMPA. The assay can be described thus: Binding affinity to AMPA receptor (unknown origin). It counts as protein-complex assay.
A short description of assay [7]: Antioxidant activity assessed as DPPH radical scavenging activity. Format: functional. To be noted: read-out: IC50.
A short description of assay [8]: Displacement of [3H]glycine from AMPA receptor (unknown origin). It counts as protein-complex assay, Homo sapiens.

SMILES strings stand for the structures. In brackets after ≈: the same amount, converted by molar mass. Where only a bound is given, the exact number is not on record here.

Usually Ki stands for a measure of affinity in units of concentration, obtained from inhibition or displacement. Molecule `O=C(O)C[C@H]1CCc2cc(Br)cc3[nH]c(=O)c(=O)n1c23` came in with a Ki in [1] of 9.6 nM.

As usually defined, the MIC is the smallest concentration in the dilution series that meets the test's criterion for growth inhibition. In the assay with Escherichia coli, `O=C(O)c1nc2ccc(Cl)cc2[nH]c1=O` had an MIC of 125 µg/mL (≈ 557 µM).

As to `C[C@H]1Cc2cc(Br)cc3[nH]c(=O)c(=O)n(c23)C1CC(=O)O` (stereo partly specified), in assay [1], the Ki turned out to be 3.3 nM.

In the case of `C[C@H]1Cc2cc(Cl)cc3[nH]c(=O)c(=O)n(c23)C1CC(=O)O` (stereo partly specified), the Ki in assay [1] came out at 4.4 nM.

Regarding `CCCCCCn1c(=O)c2c(-c3ccccc3)nc(-c3ccc[n+](Cc4ccccc4)c3)n2c2ccccc21.[Cl-]`, the MBC in the assay with Escherichia coli is > 500 µg/mL; in the assay with Staphylococcus aureus it was 50 µg/mL; against Candida albicans, 500 µg/mL; against Pseudomonas aeruginosa, > 500 µg/mL; against Bacillus cereus, > 500 µg/mL; in the assay with Aspergillus niger, > 500 µg/mL. Also, in assay [2], the MBC was > 500 µg/mL. Also, the MIC in the assay on Escherichia coli was > 500 µg/mL; in the assay on Staphylococcus aureus, 0.97 µg/mL; against Candida albicans, 7.8 µg/mL; in the assay with Pseudomonas aeruginosa, > 500 µg/mL; against Bacillus cereus, 6.3 µg/mL; with Aspergillus niger, > 500 µg/mL. The same molecule yielded an MIC in assay [2] of 500 µg/mL.

In general, IC50 refers to the concentration that gives 50% inhibition. As usually defined, the inhibition is the change of the read-out against control, counted positive when it falls. On to `O=C(O)Cn1c(=O)c(CCc2ccccc2)nc2ccccc21`, for which the midpoint of inhibition in [3], the IC50, lay at 143 nM. Moreover, in [4], the inhibition came out at 22%.

Turning to `O=C(O)c1ccn(-c2cc3c(cc2[N+](=O)[O-])nc(O)c2nc(C(=O)O)nn23)c1`, the Ki in assay [5] came out at 19 nM.

Regarding `CCCCCCCCC[n+]1cccc(-c2nc(-c3ccccc3)c3c(=O)n(CCCCCC)c4ccccc4n23)c1.[I-]`, the MBC with Escherichia coli is > 500 µg/mL; against Staphylococcus aureus, 5 µg/mL; against Candida albicans it was 500 µg/mL; against Pseudomonas aeruginosa it was > 500 µg/mL; in the assay with Bacillus cereus, 500 µg/mL; with Aspergillus niger it was > 500 µg/mL. Also, the MBC in [2] was > 500 µg/mL. Further, the MIC in the assay with Escherichia coli was > 500 µg/mL; against Staphylococcus aureus, 0.78 µg/mL; in the assay with Candida albicans it was 500 µg/mL; in the assay with Pseudomonas aeruginosa, > 500 µg/mL; against Bacillus cereus it was 0.78 µg/mL; in the assay with Aspergillus niger, > 500 µg/mL. The MIC in assay [2] is > 500 µg/mL.

Turning to `O=C(Nc1ccc(C(=O)O)cc1)OCc1cn(-c2cc3nc(C(=O)O)c(=O)[nH]c3cc2[N+](=O)[O-])cn1`, in [6], the affinity corresponds to a Ki of 22 nM.

Consider `CCCCCCCCC[n+]1cccc(-c2nc(-c3ccccc3)c3c(=O)n(CCCCCC)c4ccccc4n23)c1.[Br-]`, for which the MBC against Escherichia coli is 500 µg/mL; with Staphylococcus aureus it was 5 µg/mL; with Candida albicans, 50 µg/mL; with Pseudomonas aeruginosa it was > 500 µg/mL; in the assay with Bacillus cereus it was 50 µg/mL; in the assay on Aspergillus niger, > 500 µg/mL. The MBC in assay [2] came to 250 µg/mL. The MIC in the assay on Escherichia coli was 500 µg/mL; against Staphylococcus aureus, 0.97 µg/mL; against Candida albicans, 0.97 µg/mL; against Pseudomonas aeruginosa, > 500 µg/mL; in the assay on Bacillus cereus, 0.97 µg/mL; against Aspergillus niger, > 500 µg/mL. For the same molecule, the MIC in [2] turned out to be 250 µg/mL.

On to `O=C1CSC(c2ccc([N+](=O)[O-])cc2)N1c1ccc2nc(Cc3ccc(O)cc3)c(=O)[nH]c2c1` (stereo unspecified), for which the IC50 in assay [7] was 10500 nM.

In turn, `O=C(C[C@@H]1CCc2cc(Br)cc3[nH]c(=O)c(=O)n1c23)Nc1ccccc1` came in with a Ki in assay [1] of 0.96 nM.

Take `O=c1[nH]c2c([N+](=O)[O-])c(Cl)c(Cl)c([N+](=O)[O-])c2nc1Oc1ccccc1`: inhibition in [3] was half-maximal at 1540 nM (IC50).

As to `O=C(Nc1ccc(C(=O)O)cc1)OCc1cn(-c2cc3nc(C(=O)O)c(O)nc3cc2C(F)(F)F)cn1`, the Ki in assay [6] was determined as 16 nM.

For the molecule `CCc1c([N+](=O)[O-])cc2nc(O)c(O)nc2c1CN(C)CC(=O)O`, the values for the IC50 in assay [8] and in assay [5] were 470 nM and 140 nM, respectively.

On to `CCCCCCCCCn1c(=O)c2c(-c3ccccc3)nc(-c3ccc[n+](Cc4ccccc4)c3)n2c2ccccc21.[Cl-]`, for which the MBC in the assay on Escherichia coli was > 500 µg/mL; in the assay on Staphylococcus aureus, 50 µg/mL; in the assay with Candida albicans, 500 µg/mL; against Pseudomonas aeruginosa, > 500 µg/mL; with Bacillus cereus it was > 500 µg/mL; against Aspergillus niger, > 500 µg/mL. In assay [2], the MBC is > 500 µg/mL. Further, the MIC was > 500 µg/mL against Escherichia coli; 1.95 µg/mL with Staphylococcus aureus; 3.9 µg/mL against Candida albicans; > 500 µg/mL against Pseudomonas aeruginosa; 12.5 µg/mL in the assay with Bacillus cereus; > 500 µg/mL in the assay with Aspergillus niger. This molecule displayed an MIC in assay [2] of 500 µg/mL.

In assay [5], `CCOC(=O)c1nc2c(O)nc3cc([N+](=O)[O-])c(-n4ccc(C(=O)O)c4)cc3n2n1` gave a Ki of 68 nM.

With `CCOC(=O)c1nc2cc(F)c(N3CCOCC3)cc2[nH]c1=O`, the MIC with Pseudomonas aeruginosa was 250 µg/mL (≈ 778 µM).

For the molecule `O=C(O)Cn1c(=O)c(Oc2ccc(Br)cc2)nc2ccc(F)cc21`, in assay [3], the IC50 stood at 11.4 nM. Besides, the inhibition in [4] came out at 30.7%.

Molecule `O=C(O)Cn1c(=O)c(Oc2ccc(Br)cc2F)nc2ccc(F)cc21` displayed an IC50 in assay [3] of 6.44 nM. The same molecule returned an inhibition in assay [4] of 58.7%.

For the molecule `NC(Cn1c(=O)c(=O)[nH]c2ccccc21)C(=O)O` (stereo unspecified), the IC50 in [5] is 690 nM.

`C[C@H]1Cc2cc(Br)cc3[nH]c(=O)c(=O)n(c23)C1CC(=O)Nc1ccccc1` (stereo partly specified) displayed a Ki in [1] of 3 nM.

Turning to `NC(CNC(=O)C(=O)O)C(=O)O` (stereo unspecified), in assay [5], the IC50 is 1300 nM.

For `CC[C@H]1Cc2cc(Br)cc3[nH]c(=O)c(=O)n(c23)C1CC(=O)O` (stereo partly specified), in assay [1], affinity was put at a Ki of 1.4 nM.

`O=C(O)C[C@@H]1CCc2cc(Br)cc3[nH]c(=O)c(=O)n1c23`: the Ki in [1] was 2.3 nM.

Molecule `O=c1[nH]c2cc([N+](=O)[O-])c(-n3ccnc3)nc2n2cnnc12` had a Ki in assay [5] of 190 nM.

As to `CCOC(=O)CN(C)Cc1c(CC)c([N+](=O)[O-])cc2nc(O)c(O)nc12`, the IC50 in [8] was > 10000 nM; in assay [5], 1590 nM.

With `CCc1nc2cc(C(F)(F)F)ccc2[nH]c1=O`, the MIC in the assay with Pseudomonas aeruginosa worked out at 62.5 µg/mL (≈ 258 µM).

Consider `CCOC(=O)c1nc2ccc(C(F)(F)F)cc2[nH]c1=O`, for which, in the assay with Escherichia coli, the MIC was 125 µg/mL (≈ 437 µM).

Consider `CCCCCCCCCn1c(=O)c2c(-c3ccccc3)nc(-c3ccc[n+](CCCCCCCCC)c3)n2c2ccccc21.[I-]`, for which the MBC in the assay on Escherichia coli is > 500 µg/mL; in the assay on Staphylococcus aureus, 500 µg/mL; in the assay with Candida albicans, > 500 µg/mL; against Pseudomonas aeruginosa, > 500 µg/mL; in the assay with Bacillus cereus it was > 500 µg/mL; against Aspergillus niger, > 500 µg/mL. Moreover, the MBC in [2] is > 500 µg/mL. Besides, the MIC is > 500 µg/mL against Escherichia coli; 7.8 µg/mL against Staphylococcus aureus; > 500 µg/mL in the assay on Candida albicans; > 500 µg/mL in the assay with Pseudomonas aeruginosa; 7.8 µg/mL in the assay with Bacillus cereus; > 500 µg/mL in the assay with Aspergillus niger. Moreover, the MIC in assay [2] was > 500 µg/mL.

For the molecule `CCOC(=O)c1nc2cc(C(F)(F)F)ccc2[nH]c1=O`, the values for the MIC with Escherichia coli and against Staphylococcus aureus were 125 µg/mL (≈ 437 µM) and 250 µg/mL (≈ 873 µM), respectively.

On to `C=Cc1c(Br)cc2nc(O)c(O)nc2c1CN(C)CC(=O)O`, for which the IC50 in assay [5] came to 1180 nM.

Molecule `C[C@H]1Cc2cc(Cl)cc3[nH]c(=O)c(=O)n(c23)C1CC(=O)Nc1ccccc1` (stereo partly specified) registered a Ki in assay [1] of 3.1 nM.

In the case of `O=[N+]([O-])c1cc2nc(O)c(O)nc2nc1-n1ccnc1`, the Ki in assay [8] was 10000 nM; in assay [5], 140 nM.

In assay [3], `O=C(O)Cn1c(=O)c(Oc2ccc(Br)cc2)nc2cc(Br)ccc21` gave an IC50 of 16.3 nM. The same molecule showed an inhibition in assay [4] of 25.6%.

For `CCc1c(Br)cc2nc(O)c(O)nc2c1CN(C)CC(=O)O`, the concentration for half-maximal inhibition (IC50) in assay [5] was found to be 2320 nM.

Molecule `CCOC(=O)c1nc2cc(F)ccc2[nH]c1=O` displayed an MIC in the assay with Pseudomonas aeruginosa of 250 µg/mL (≈ 1060 µM).

In the case of `CCc1nc2ccc(C(F)(F)F)cc2[nH]c1=O`, 125 µg/mL (≈ 516 µM) was the least that counted as inhibitory against Pseudomonas aeruginosa (MIC).
